Columns and labels:
[1] = water solubility; assay type: physicochemical; conditions: compound I and/or its salts and/or hydrates
[2] = system: gram-negative and gram-positive bacteria; conditions: against gram-negative and gram-positive bacteria; relative to sparfloxacin and ciprofloxacin; Drugs of the Future 1997, 22 (2): 109/113; cited from earlier work
[3] = absorption behaviour in the lower sections of the intestine; assay type: in vivo; conditions: in contrast to ciprofloxacin
Text: It was therefore the object of the present invention to develop a drug formulation of the compound I and pharmaceutically tolerable salts thereof and/or their hydrates which meets the requirements described above. […] Only this surprising absorption behaviour of moxifloxacin, which is different from known quinolonecarboxylic acid antibiotics, opens up any possibility of developing a retard formulation of moxifloxacin.

SMILES	solubility [1] [mg/mL]	antibacterial action [2]	absorption in the lower sections of the intestine (colon, rectum) [3]
COc1c(N2C[C@@H]3CCCN[C@@H]3C2)c(F)cc2c(=O)c(C(=O)O)cn(C3CC3)c12 [compound I, 1-cyclopropyl-7-([S,S]-2,8-diazabicyclo[4.3. 0]non-8-yl)-6-fluoro-1,4-dihydro-8-methoxy-4-oxo-3-quino-lonecarboxylic acid]	~24	frequently significantly better than that of sparfloxacin and ciprofloxacin	–
COc1c(N2C[C@@H]3CCCN[C@@H]3C2)c(F)cc2c(=O)c(C(=O)O)cn(C3CC3)c12 [compound II]	–	–	also absorbed in the lower sections of the intestine (colon, rectum)

— patent US6270799A, “Medicament formulation with a controlled release of an active agent” (Bayer Aktiengesellscahft, priority 1997, dated 2001)
